Experimental data as given in patent publication US6500842B1, “8-hydroxy-7-substituted quinolines as anti-viral agents” (Pharmacia & Upjohn Company, priority 1996, dated 2002).
“And” between values parts separate entries of the source, which are not always exact repeats. Identical values can stand only once. Like-named read-outs stand apart in the source and are kept apart here.

Columns and labels:
HCMV polymerase = biological target: T1, HCMV polymerase (Human cytomegalovirus, UniProt P08546); assay: HCMV polymerase assay (scintillation proximity assay); format: biochemical; settings: pol type CMV
T1 construct: made in house; host or cells: recombinant baculovirus-infected SF-9 cells
Outline: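 Baculovirus/SF-9-expressed purified enzyme in HEPES pH 7.5, KCl, 4.5 mM MgCl2, BSA, with 90 nM ³H-dTTP, ± 2 mM CHAPS; started with 6 nM biotinylated poly(dA)-oligo(dT), 30 min, stopped with EDTA. Incorporation read by streptavidin SPA beads; IC50 by linear regression.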

[1] = Table 1, read-out: CMV pol Assay IC50

T1 sequence (P08546 whole entry): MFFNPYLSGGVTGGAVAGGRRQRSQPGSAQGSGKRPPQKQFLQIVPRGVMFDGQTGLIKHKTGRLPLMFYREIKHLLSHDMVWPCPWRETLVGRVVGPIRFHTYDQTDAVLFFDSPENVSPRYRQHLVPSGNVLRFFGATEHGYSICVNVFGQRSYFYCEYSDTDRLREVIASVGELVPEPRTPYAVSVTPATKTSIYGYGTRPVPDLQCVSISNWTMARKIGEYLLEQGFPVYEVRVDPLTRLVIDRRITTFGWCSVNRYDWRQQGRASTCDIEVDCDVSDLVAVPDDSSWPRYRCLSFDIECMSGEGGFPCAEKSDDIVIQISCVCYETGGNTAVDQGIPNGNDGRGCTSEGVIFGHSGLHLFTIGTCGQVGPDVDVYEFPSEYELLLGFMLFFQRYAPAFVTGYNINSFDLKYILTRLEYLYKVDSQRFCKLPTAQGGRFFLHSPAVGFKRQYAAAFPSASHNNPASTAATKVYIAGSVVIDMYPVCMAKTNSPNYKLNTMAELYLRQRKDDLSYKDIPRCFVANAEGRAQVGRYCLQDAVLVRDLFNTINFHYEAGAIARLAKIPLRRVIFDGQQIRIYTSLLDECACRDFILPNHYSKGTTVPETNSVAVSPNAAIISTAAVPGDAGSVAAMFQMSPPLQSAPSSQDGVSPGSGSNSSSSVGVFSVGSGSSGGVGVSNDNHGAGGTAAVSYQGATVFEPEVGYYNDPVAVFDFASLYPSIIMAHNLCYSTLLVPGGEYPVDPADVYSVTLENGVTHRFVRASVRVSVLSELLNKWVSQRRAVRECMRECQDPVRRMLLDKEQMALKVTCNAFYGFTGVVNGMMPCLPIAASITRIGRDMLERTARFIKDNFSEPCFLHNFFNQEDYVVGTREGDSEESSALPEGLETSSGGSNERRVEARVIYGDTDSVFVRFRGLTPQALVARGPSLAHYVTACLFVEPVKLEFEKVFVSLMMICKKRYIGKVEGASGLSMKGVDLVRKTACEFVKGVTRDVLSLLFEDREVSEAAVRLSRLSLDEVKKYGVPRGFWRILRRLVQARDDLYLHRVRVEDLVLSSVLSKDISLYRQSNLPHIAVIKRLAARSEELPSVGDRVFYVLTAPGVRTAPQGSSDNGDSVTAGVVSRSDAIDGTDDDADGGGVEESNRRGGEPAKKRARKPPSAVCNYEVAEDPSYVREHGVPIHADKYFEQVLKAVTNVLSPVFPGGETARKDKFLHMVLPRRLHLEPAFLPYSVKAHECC

melting point | IC50 (HCMV polymerase; [1]) | IC50 (HCMV polymerase; Table 2, read-out: IC50) | Structure (SMILES) | other results
131 to 132 °C |  |  | O=C(NCCSc1ccccc1)c1ccc2ccc(/C=C/c3ccccc3)nc2c1O [Example 52, 8-Hydroxy-2-(2-phenylethenyl)-N-[2-(phenylthio)ethyl]-7-quinolinecarboxamide] | IC50 (HCMV polymerase; Table 5, read-out: IC50): < 3.1 µM and 0.17 µM
83 to 86 °C |  |  | O=C(NCC(O)c1ccccc1)c1ccc2ccc(/C=C/c3ccccc3)nc2c1O (centres unmarked) [Example 50, 8-Hydroxy-N-(2-hydroxy-2-phenylethyl)-2-(2-phenylethenyl)-7-quinolinecarboxamide] | IC50 (HCMV polymerase; Table 5, read-out: IC50): < 3.1 µM and 1.2 µM
210 to 212 °C | 15.9 µM |  | O=C(NCc1ccc([N+](=O)[O-])cc1)c1ccc2cccnc2c1O [Example 12, 8-Hydroxy-N-[(4-nitrophenyl)methyl]-7-quinolinecarboxamide] | 
272 to 276 °C (dec.) | 6.8 µM |  | O=C(NC1=NC(=O)C(c2ccc(Cl)cc2)S1)c1ccc2cccnc2c1O (centres unmarked) [Example 5, N-[5-(4-Chlorophenyl)-4,5-dihydro-4-oxo-2-thiazolyl]-8-hydroxy-7-quinolinecarboxamide] | 
213 to 215 °C | 3.9 µM and 3.1 µM and 5.1 µM |  | O=C(Nc1ccc(Cl)cc1)c1cc(Br)c2cccnc2c1O [Example 4, 5-Bromo-N-(4-chlorophenyl)-8-hydroxy-7-quinolinecarboxamide] | 
178 to 183 °C |  |  | O=C(NCc1ccc(Cl)cc1)c1ccc2ccc[n+]([O-])c2c1O [Example 58, N-[(4-Chlorophenyl)methyl]-8-hydroxy-7-quinoline-N-oxide carboxamide] | % Inhib (HCMV polymerase; Table 5, Conc 1.00e-004 M): 65%; % Inhib (HCMV polymerase; Table 5, Conc 1.30e-005 M): 27.9%; % Inhib (HCMV polymerase; Table 5, Conc 2.50e-005 M): 40.2%; % Inhib (HCMV polymerase; Table 5, Conc 3.13e-006 M): −2.9%; % Inhib (HCMV polymerase; Table 5, Conc 5.00e-005 M): 46.2%; % Inhib (HCMV polymerase; Table 5, Conc 6.25e-006 M): 2.4%; IC50 (HCMV polymerase; Table 5, read-out: IC50): 49.7 µM
189 to 190 °C (dec.) |  | 27.9 µM | O=S(=O)(NCc1ccc(Cl)cc1)c1cc(Cl)c2cccnc2c1O [Example 18, 5-Chloro-N-[(4-chlorophenyl)methyl]-8-hydroxy-7-quinoline-sulfonamide] | 
192 to 194 °C |  |  | O=C(NCc1ccc(Cl)cc1)c1ccc2ccc(/C=C/c3ccccc3)nc2c1O [Example 51, N-[(4-Chlorophenyl)methyl]-8-hydroxy-2-(2-phenylethenyl)-7-quinolinecarboxamide] | IC50 (HCMV polymerase; Table 5, read-out: IC50): < 3.1 µM and 0.17 µM
136 to 139 °C |  | 4.6 µM | Cc1ccc2c(Cl)cc(S(=O)(=O)NCCSc3ccccc3)c(O)c2n1 [Example 26, 5-Chloro-8-hydroxy-2-methyl-N-[2-(phenylthio)ethyl]-7-quinolinesulfonamide] | 
135 to 140 °C (dec.) |  |  | O=C(NCc1ccc(Cl)cc1)c1ccc2c(O)cc(C(F)(F)F)nc2c1O [Example 46, N-[(4-Chlorophenyl)methyl]-4,8-dihydroxy-2-trifluoromethyl-7-quinolinecarboxamide] | IC50 (HCMV polymerase; Table 5, read-out: IC50): 23.3 µM
207 to 209 °C | 7.1 µM |  | O=C(Nc1ccc(Cl)cc1)c1ccc2cccnc2c1O [Example 3, N-(4-Chlorophenyl)-8-hydroxy-7-quinolinecarboxamide] | 
163 to 166 °C | 1.3 µM |  | O=C(NCc1ccc(Cl)cc1)c1cc(Cl)c2cccnc2c1O [Example 11, 5-Chloro-N-[(4-chlorophenyl)methyl]-8-hydroxy-7-quinolinecarboxamide] | 
284 to 287 °C (dec.) |  | 5.5 µM | Cc1ccc2c(Cl)cc(S(=O)(=O)Nc3ccc(Cl)cc3)c(O)c2n1 [Example 28, 5-Chloro-N-(4-chlorophenyl)-8-hydroxy-2-methyl-7-quinoline-sulfonamide] | 
85 to 100 °C |  | 18.3 µM and 40.1 µM | CCCCCCCCNS(=O)(=O)c1cc(Cl)c2ccc(C)nc2c1O [Example 29, 5-Chloro-8-hydroxy-2-methyl-N-octyl-7-quinolinesulfonamide] | 
163 to 165 °C |  |  | COc1ccc(/C=C/c2ccc3ccc(C(=O)NCCSc4ccccc4)c(O)c3n2)cc1 [Example 54, 8-Hydroxy-2-[2-(4-methoxyphenyl)ethenyl]-N-[2-(phenylthio)-ethyl]-7-quinolinecarboxamide] | IC50 (HCMV polymerase; Table 5, read-out: IC50): < 3.1 µM and 0.3 µM
276 to 278 °C | 4.3 µM |  | O=C(Nc1nnc(Cc2ccc(Cl)cc2)s1)c1ccc2cccnc2c1O [Example 2, N-[5-[(4-Chlorophenyl)methyl]-1,3,4-thiadiazol-2-yl]-8-hydroxy-7-quinolinecarboxamide] | 
132 to 135 °C |  | 3.6 µM | Cc1ccc2c(Cl)cc(S(=O)(=O)NCCc3ccc(Cl)cc3Cl)c(O)c2n1 [Example 25, 5-Chloro-N-[2-(2,4-dichlorophenyl)ethyl]-8-hydroxy-2-methyl-7-quinolinesulfonamide] | 
113 to 114 °C |  | 14.8 µM | Cc1ccc2c(Cl)cc(S(=O)(=O)NCc3ccccc3)c(O)c2n1 [Example 27, 5-Chloro-8-hydroxy-2-methyl-N-(phenylmethyl)-7-quinoline-sulfonamide] | 
279 to 281 °C (dec.) | 6.9 µM |  | O=C(Nc1ncc(-c2ccc(Br)s2)s1)c1ccc2cccnc2c1O [Example 7, N-[5-(5-Bromo-2-thienyl)-2-thiazolyl]-8-hydroxy-7-quinolinecarboxamide] | 
192 to 194 °C |  | 2 µM and 3.1 µM | O=S(=O)(NCCc1ccc(Cl)cc1)c1cc(Cl)c2cccnc2c1O [Example 23, 5-Chloro-N-[2-(4-chlorophenyl)ethyl]-8-hydroxy-7-quinoline-sulfonamide] | 
210 to 212 °C (dec.) |  | 7.5 µM and 12.6 µM | Br.O=S(=O)(NCCCc1ccccc1)c1cc(Cl)c2cccnc2c1O [Example 21, 5-Chloro-8-hydroxy-N-(3-phenylpropyl)-7-quinolinesulfonamide monohydrobromide] | 
115 to 116 °C |  |  | CCCCCCCNC(=O)c1ccc2ccc(/C=C/c3ccc(OC)cc3)nc2c1O [Example 48, N-Heptyl-8-hydroxy-2-[2-(4-methoxyphenyl)ethenyl]-7-quinolinecarboxamide] | IC50 (HCMV polymerase; Table 5, read-out: IC50): 0.5 µM and < 3.1 µM
268 to 272 °C (dec.) | 20.1 µM |  | O=C(NC1=NC(=O)C(c2cccc(Cl)c2)S1)c1ccc2cccnc2c1O (centres unmarked) [Example 8, N-[5-(3-Chlorophenyl)-4,5-dihydro-4-oxo-2-thiazolyl]-8-hydroxy-7-quinolinecarboxamide] | 
148 to 151 °C | 2.5 µM |  | O=C(NCc1ccc(Cl)cc1)c1cc(Br)c2cccnc2c1O [Example 9, 5-Bromo-N-[(4-chlorophenyl)methyl]-8-hydroxy-7-quinolinecarboxamide] | 
52 to 54 °C |  | 12.8 µM | Cc1ccc2c(Cl)cc(S(=O)(=O)NCc3cccc(Cl)c3)c(O)c2n1 [Example 33, 5-Chloro-N-[(3-chlorophenyl)methyl]-8-hydroxy-2-methyl-7-quinolinesulfonamide] | 
131 to 134 °C |  |  | Cc1ccc2c(Cl)cc(C(=O)NCCSc3ccccc3)c(O)c2n1 [Example 70, 5-chloro-8-hydroxy-2-methyl-N-[(2-phenylthio)ethyl]-7-quinolinecarboxamide] | 

Structure (SMILES) | melting point | IC50 (HCMV polymerase; [1]) | IC50 (HCMV polymerase; Table 2, read-out: IC50) | other results
O=C(Nc1nc2ccc(Cl)cc2s1)c1ccc2cccnc2c1O [Example 13, N-(6-Chloro-2-benzothiazolyl)-8-hydroxy-7-quinolinecarboxamide] | > 320 °C | > 100 µM |  | 
